These results are taken from US7138486B2, “Insulinotropic hormone derivatives and uses thereof” (The General Hospital Corporation, priority 1986, dated 2006).

Where no end group is shown, it is not given here.

Assay [1] deals with rat pancreas. The assay can be described thus: Pancreatic perfusion assay of insulinotropic activity (effluent insulin). Type of assay: in vivo. The note with it: for Insulinotropic activity (perfusate insulin): Table 6; for Insulinotropic activity: 10^−11 M, five minute perfusions, FIG. 4; for Mean perfusate insulin concentration: 10^−9 M for 5 minutes.
Description: The in situ isolated perfused rat pancreas preparation was a modification of the method of Penhos, J. C., el al. (Diabetes 18:733–738 (1969)). In accordance with such a method, fasted rats (preferably male Charles River strain albino rats), weighing 350–600 g, are anesthetized with an intraperitoneal injection of Amytal Sodium (Eli Lilly and Co., 160 ng/kg). Renal, adrenal, gastric, and lower colonic blood vessels are ligated. The entire intestine is resected except for about four cm of duodenum and the descending colon and rectum. […] The perfusate is preferably a modified Krebs-Ringer bicarbonate buffer with 4% dextran T70 and 0.2% bovine serum albumin (fraction V), and is preferably bubbled with 95% O2 and 5% CO2. A nonpulsatile flow, four-channel roller-bearing pump (Buchler polystatic, Buchler Instruments Division, Nuclear-Chicago Corp.) is preferably used, and a switch from one perfusate source to another is preferably accomplished by switching a three-way stopcock.
Isolated rat pancreas was prepared according to the method of Weir, G. C., et al., (J. Clin. Invest. 54:1403–1412 (1974)), and Penkos, J. C., et al. (Diabetes 18:733–738 (1969)). The perfusate contained bicarbonate buffer (pH 7.4) and 120 mg/dl glucose, 4% dextran T-70, and 0.2% bovine serum albumin, and was equilibrated with 95% oxygen and 5% carbon dioxide. The first 20 minutes of each perfusion was an equilibrium period. After this initial period, aliquots of perfusate were removed every 2–4 min for additional 20 min, thus allowing the system to equilibrate for a total of 40 min. The perfusion, including any added insulinotropic peptide, was for 6 min and samples were collected at 1-min intervals. When more than one perfusion was to be performed, the peptide perfusions were followed by equilibration periods of 20 min, during which four samples 5 min apart were collected. […] Again, samples 1 min apart were collected. The entire perfusion time was between 70 and 85 min.
In each aliquot of perfusate obtained, insulin was determined by radioimmunoassay. […] At one minute intervals, pancreas effluent insulin levels in picograms/ml were determined by radioimmunoassay (as described above).
Assay [2] has as its system RIN 1046-38 cells. The experiment in a line: cAMP formation in insulinoma cell line. It counts as cell-based, rat. The note with it: for Effect on cAMP levels: 0.5 μM; for Effects on the formation of cAMP: at 5 nM and 50 pM. How it is done: Cells were grown as described in Example 1, in […] culture dishes. Varying amounts of glucagon-like peptides were added to culture wells in triplicate. […] Twenty microliters from each culture well was assayed.
Insulinotropic activity was monitored as described by Mojsov, S., et al., (J. Clin. Invest. 79:616–619 (1987)) and Drucker, D. J., et al., (Proc. Natl Acad. Sci. 84:3434–3438 (1987)), both of which references are incorporated by reference herein. […]

For assay [3], the system named is RIN 1046-38 cells. The assay can be described thus: Levels of insulin, actin and angiotensinogen mRNAs by Northern blot densitometry. It counts as cell-based, rat. How it is done:
Rat insulinoma cells of cell line RIN-38 were derived from a continuous islet cell line, RIN-r, which was established from a transplantable rat islet cell tumor (Gazdar, A. F., et al., Proc. Natl. Acad. Sci., USA 77:3519–3523 (1980)). The cells were maintained in DMEM (Gibco) at a glucose concentration of 4,500 mg/L and supplemented with 10% heat-inactivated fetal bovine serum (Gibco), 100 U/ml of penicillin and 100 μg/ml of streptomycin. Incubations were carried out at 37° C. in 95% air:5% CO2. Cells grown in the above manner were washed and resuspended in DMEM (Gibco) containing 0.1% bovine serum albumin and 25 mM glucose. […] Incubations were for six hours.
Messenger RNAs specific for insulin, actin, or angiotensinogen were identified by Northern hybridization as follows: cellular RNA was extracted from solid tumors and cells by homogenization in guanidine thiocyanate and sedimentation through a cesium chloride cushion. Poly A^+ RNA was isolated by oligo dT cellulose chromatography (Aviv, H., et al., Proc. Natl. Acad. Sci., USA 69:1408–1412 (1972)). Twenty micrograms of total RNA from each sample were fractionated by size on a 1.4% agarose gel after denaturation in glyoxal, followed by electrotransfer to a nylon membrane (Nytran; Schleicher and Schuell). Blotted membranes were baked for two hours at 80° C. under vacuum, prehybridized in 1M NaCl/1% SDS/10% Dextran sulfate at 50° C. overnight and hybridized at the same temperature for 24 h after addition of the labeled probes (3–5×10^5 cpm/ml); they were then washed at 55° C. twice in 1×SCC (0.15M NaCl/0.015 M Na citrate)/1% SDS), and exposed to X-ray film for varying times at −70° C. with an intensifying screen. The relative amounts of the specific mRNA were determined by microdensitometry.

Assay [4] deals with cellular receptors. The experiment in a line: cell-based or functional assay.

With “GLP-1(7-36)-NH2: GLP-1(7-36) with the C-terminal residue, arginine, in amidated form as arginineamide”, the “Insulinotropic activity (perfusate insulin)” value in assay [1] (time +1 minute) was 4550 ± 703; in assay [1] (time +2 minutes) it was 3330 ± 637; in assay [1] (time +3 minutes), 2500 ± 564; in assay [1] (time −1 minute (before peptide), 5 minute perfusion), 985 ± 275. In assay [1] (perfused rat pancreas), the “Potency as secretagogue, 7-37 form versus 7-36-amide” value is “equally potent secretagogues”. Besides, the cAMP formation is 358 ± 32 fmoles/10 ul of cell extract in assay [2] (IBMX 100 uM, peptide 10^−7 M); 225 ± 16 fmoles/10 ul of cell extract in assay [2] (IBMX 100 uM, peptide 10^−9 M); 141 ± 5 fmoles/10 ul of cell extract in assay [2] (IBMX 100 uM, peptide 10^−11 M, 10 minutes, control 161 ± 10); 1676 ± 113 fmoles/10 ul of cell extract in assay [2] (IBMX 500 uM, peptide 10^−7 M); 1199 ± 41 fmoles/10 ul of cell extract in assay [2] (IBMX 500 uM, peptide 10^−9 M); 446 ± 38 fmoles/10 ul of cell extract in assay [2] (IBMX 500 uM, peptide 10^−11 M, control 540 ± 22).
In the case of “des-7 histidine GLP-1(7-37) (AEGTFTSDVSSYLEGQAAKEFIAWLVKGRG) [GLP-1 (8-37)]”, the “Effect on insulin secretion” value in assay [1] (perfusate glucose 6.6 mM, 10^−7 M) is listed as “weak insulinotropic activity”; in assay [1] (perfusate glucose 6.6 mM, 10^−11, 10^−9, or 10^−8 M), “no detectable effect”; in assay [1] (perfusate glucose 16.7 mM, 10^−9 M), “no effect”. The “cAMP formation” value is recorded as 77 ± 11 f-mole/5 ul of cell extract/15 min exposure to peptide in assay [2] (Table 8, 10^−5 M); 31 ± 3 f-mole/5 ul of cell extract/15 min exposure to peptide in assay [2] (Table 8, 10^−6 M); 24 ± 2 f-mole/5 ul of cell extract/15 min exposure to peptide in assay [2] (Table 8, 10^−7 M); 28 ± 0.8 f-mole/5 ul of cell extract/15 min exposure to peptide in assay [2] (Table 8, 10^−8 M, no peptide 27 ± 2, mean ± S.E.M.). In addition, the “Insulinotropic activity compared with glucagon” value in assay [2] (cAMP formation) was “comparable to that of glucagon”.
Turning to “GLP-1(7-35): derivative of GLP-1(1-37), amino acids 7-35 (HAEGTFTSDVSSYLEGQAAKEFIAWLVKG; Glucagon-like peptide 1; UniProt P01275 98-126, looked up, fragment)”, the Insulinotropic activity entry in assay [1] is “detectable insulinotropic activity”.
Same read-out and setting: then “GLP-1(7-34): derivative of GLP-1(1-37), amino acids 7-34 (HAEGTFTSDVSSYLEGQAAKEFIAWLVK; Glucagon-like peptide 1; UniProt P01275 98-125, looked up, fragment)”, with “detectable insulinotropic activity”.
As to “GLP-2: glucagon-like peptide 2, 34 amino acid residues long”, in assay [3], the “Effects on insulin mRNA levels” value is given as “no effects”. In addition, the “Stimulation of cAMP levels” value in assay [2] (even at 10^−11 M) was “neither GLP-1(1-37) nor GLP-2 (GLP-2) exhibited such activity”.
For the molecule glucagon, the “Mean perfusate insulin concentration” value in assay [1] (glucose 6.6 mM, absence of GLP-1 (8-37)) is 4.98 ± 0.96 ng/mL; in assay [1] (glucose 6.6 mM, presence of 10^−8 M GLP-1 (8-37), N=4), 5.26 ± 0.89 ng/mL. Further, in assay [1] (10^−9 M, glucose 6.6 mM), the Peak insulin release was found to be 4.5 ± 0.5 ng/mL. For the same molecule, the Insulin release entry in assay [1] (10^−11M) was “no release”. Further, in assay [1] (pancreatic B cell secretagogue), the “Concentration at which an insulinotropic effect is still mediated (as low as)” value is on record as 10^−9 M. The “Effects on insulin mRNA levels” value in assay [3] is on record as “no effects”. Further, in assay [2], the “Effect on cAMP levels” value is reported as “increased cAMP levels”. Also, the cAMP is 20.1 ± 2.5 (a) fmol in assay [2] (Exp. 1, 5 × 10^−9 M); 16.5 ± 2.0 (NS) fmol in assay [2] (Exp. 1, 5 × 10^−10 M); 13.2 ± 1.0 (NS) fmol in assay [2] (Exp. 1, 5 × 10^−11 M); 18.7 ± 2.2 (NS) fmol in assay [2] (Exp. 1, 5 × 10^−12 M, per 1/50th of cell extract per plate, control 15.4 ± 0.7, mean ± SEM); 93.1 ± 2.9 (c) fmol in assay [2] (Exp. 2, 5 × 10^−7 M); 44.8 ± 1.6 (NS) fmol in assay [2] (Exp. 2, 5 × 10^−8 M, control 43.6 ± 4.1). Besides, the “cAMP formation” value in assay [2] (Table 8, 10^−6 M) is on record as 92 ± 9 f-mole/5 ul of cell extract/15 min exposure to peptide. The “Effects on the formation of cAMP” value in assay [2] was “negligible”.
As for “His-Ala-Glu-Gly-Thr-Phe-Thr-Ser-Asp-Val-Ser-Ser-Tyr-Leu-Glu-Gly-Gln-Ala-Ala-Lys-Glu-Phe-Ile-Ala-Trp-Leu-Val-Lys-Gly-Arg (HAEGTFTSDVSSYLEGQAAKEFIAWLVKGR; printed: His-Ala-Glu-Gly-Thr-Phe-Thr-Ser-Asp-Val-Ser-Ser-Tyr-Leu-Glu-Gly-Gln-Ala-Ala-Lys-Glu-Phe-Ile-Ala-Trp-Leu-Val-Lys-Gly-Arg) [GLP-1(7-36), GLP-1 polypeptide having all amino acids from number 7 through number 36]”, in assay [1] (10^−11M), the “Insulinotropic activity compared with GLP-1(7-37)” value is on record as “equiavlent to GLP-1(7-37)”.
In the case of “GLP-1-(1-36)-NH2: GLP-1(1-36 des-gly-arg amide); Peninsula Laboratories (HDEFERHAEGTFTSDVSSYLEGQAAKEFIAWLVKGR-NH2; UniProt P01275 92-127, looked up, fragment)”, the “Actin mRNA level” value in assay [3] (Experiment 1, peptide 5 × 10^−7 M, control 0.68 ± 0.03) was 0.87 ± 0.19 Arbitrary densitometric units. In assay [3] (Experiment 1, peptide 5 × 10^−7 M, control 1.28 ± 0.18, mean ± SEM), the “Insulin mRNA level” value is 2.78 ± 0.51^4 Arbitrary densitometric units. Also, the “Angiotensinogen mRNA level” value in assay [3] (Experiment 1, peptide 5 × 10^−7 M, control 2.67 ± 0.31) is 2.56 ± 0.22 Arbitrary densitometric units. In assay [2], the “Effect on cAMP levels” value was “increased cAMP levels” and the “Effects on the formation of cAMP” value is recorded as “negligible”. The cAMP in assay [2] (Exp. 4, 5 × 10^−7 M, control 41.3 ± 7.1) is recorded as 70.2 ± 2.8 (b) fmol.

B1: glucagon-like peptide-1 (7-37) (peptide)
peptide: HAEGTFTSDVSSYLEGQAAKEFIAWLVKGRG
For B1, in assay [4], the cAMP level in RIN-38 cells, 10 min, peptide at 10^-6 M (no peptide: 140) came out at 400; the cAMP level in RIN-38 cells, 10 min, peptide at 10^-7 M (no peptide: 140) turned out to be 370; the cAMP level in RIN-38 cells, 10 min, peptide at 10^-8 M (no peptide: 140) is 494; the cAMP level in RIN-38 cells, 10 min, peptide at 10^-9 M (no peptide: 140) was 515. For the same molecule, in assay [4], the cAMP level in RIN-38 cells, 10 min, peptide at 10^-10 M (no peptide: 140) came to 253 and the cAMP level in RIN-38 cells, 10 min, peptide at 10^-11 M (no peptide: 140) is 533.

B2: glucagon-like peptide-1 (1-37) (peptide)
peptide: HDEFERHAEGTFTSDVSSYLEGQAAKEFIAWLVKGRG
As for B2, in assay [4], the cAMP level in RIN-38 cells, 10 min, peptide at 10^-6 M (no peptide: 91) amounted to 170; the cAMP level in RIN-38 cells, 10 min, peptide at 10^-7 M (no peptide: 91) came out at 120; the cAMP level in RIN-38 cells, 10 min, peptide at 10^-8 M (no peptide: 91) was 160; the cAMP level in RIN-38 cells, 10 min, peptide at 10^-9 M (no peptide: 91) worked out at 100. Also, in assay [4], the cAMP level in RIN-38 cells, 10 min, peptide at 10^-10 M (no peptide: 91) is 90 and the cAMP level in RIN-38 cells, 10 min, peptide at 10^-11 M (no peptide: 91) amounted to 90.
